In US12281121B2, “N-containing heteroaryl derivative and pharmaceutical composition comprising same as active ingredient for prevention or treatment of cancer” (VORONOI Inc., priority 2019, dated 2025):

What was measured:
[1] = system: Ba/F3 (naive) cells; test: Cell proliferation inhibition, CellTiter-Glo; format: cell-based; conditions: Mus musculus, BaF3; Ba/F3 not transduced, 72 hours
Experimental: (§1) Among lung cancer cell lines, which express RET fusion genes, LC-2/ad cells were cultured after adding 10% FBS (HyClone) to RPMI:F12 (1:1) (Invitrogen), and F-12 (Invitrogen) supplemented with 10% FBS was used for TT cells. RPMI-1640 supplemented with 10% FBS and 5 ng/ml IL-3 (R&D Systems) was used for Ba/F3 cells. Transduced Ba/F3 cells were cultured by adding 1 ug/ml puromycin (Invitrogen) to the same medium. 24 hours before cells were treated with the compound, 3000 to 5000 cells were aliquoted into each well of a white clear bottom 96 well plate (Corning). The compound was diluted in DMSO (3-fold dilution, a total of 12 concentrations) and the compound was injected by 0.5 μl such that the final concentration was 0.3 nM to 50 μM. For the measurement of living cells, 72 hours after the compound treatment, the cells were stored at room temperature for 10 minutes using a CellTiter-Glo luminescent cell-viability agent (Promega), and then the luminescence intensity was measured using a reader (SynergyNeo, Biotek). Each experiment was repeated in triplicate. The result value was calculated by the cell growth ratio (%) compared to the control. A graph was drawn using the GraphPad Prism version 5.0 program, and a GI50 (nM) value was calculated.
(§2) In the cell assay column, LC-2/ad (with CCDC6-RET gene) is a lung cancer cell line, a TT cell line ([…]) is a thyroid cancer cell line, Ba/F3 CCDC6-RET (WT), Ba/F3 KIF5B-RET (WT), and Ba/F3 KIF5B-RET (V804M) are cells in which disease-related traits (CCDC6-RET, KIF5B-RET, and KIF5B-RET (V804M)) are introduced into Ba/F3 cells, and Ba/F3 (naive) is a cell which is not transduced.

[2] = system: Ba/F3 KIF5B-RET (WT) cells; test: Cell proliferation inhibition, CellTiter-Glo; format: cell-based; conditions: Mus musculus, BaF3, 72 hours
Experimental: as §1, §2

[3] = system: Ba/F3 KIF5B-RET (V804M) cells; test: Cell proliferation inhibition, CellTiter-Glo; format: cell-based; conditions: Mus musculus, BaF3, 72 hours
Experimental: as §1, §2

[4] = system: Ba/F3 CCDC6-RET (WT) cells; test: Cell proliferation inhibition, CellTiter-Glo; format: cell-based; conditions: BaF3/CCDC6-RET, 72 hours
Experimental: as §1, §2

[5] = system: TT cells; test: Cell proliferation inhibition, CellTiter-Glo; format: cell-based; conditions: Homo sapiens; TT thyroid cancer cell line, 72 hours
Experimental: as §1, §2

[6] = biological target: T1, RET (WT) (Homo sapiens, UniProt P07949); test: RET enzyme inhibitory ability, ADP-Glo kinase assay; format: biochemical; conditions: ATP 10 μM, 25° C., 1 hour
T1 construct: human RET (658-end, SIGNALCHEM); purchased SIGNALCHEM
T1 sequence (P07949 658-1114 limits assumed): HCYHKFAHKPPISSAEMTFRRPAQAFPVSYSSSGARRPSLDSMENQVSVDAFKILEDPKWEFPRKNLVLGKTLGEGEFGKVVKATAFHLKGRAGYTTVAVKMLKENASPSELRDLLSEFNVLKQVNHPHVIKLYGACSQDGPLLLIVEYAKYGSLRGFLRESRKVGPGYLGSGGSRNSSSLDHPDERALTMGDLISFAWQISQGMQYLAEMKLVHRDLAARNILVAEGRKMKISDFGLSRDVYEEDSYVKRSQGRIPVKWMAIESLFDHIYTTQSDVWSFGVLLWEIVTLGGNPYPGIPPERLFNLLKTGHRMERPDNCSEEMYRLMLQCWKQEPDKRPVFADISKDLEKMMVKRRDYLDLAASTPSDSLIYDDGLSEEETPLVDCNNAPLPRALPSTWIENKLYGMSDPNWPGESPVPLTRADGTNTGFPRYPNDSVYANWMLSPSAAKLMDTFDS
Experimental: The Example compound was reacted with a purified human RET (658-end, SIGNALCHEM) enzyme to evaluate the enzyme inhibitory ability by the following method. As a reaction buffer, a composition of 40 mM Tris-HCl pH 7.4, 20 mM MgCl2, 0.5 mg/mL BSA, and 50 μM DTT was used, and all experimental materials were reacted on the reaction buffer. After the human RET (658-end, 0.8 ng) enzyme was reacted with purified ATP (10 μM) and a specific substrate solution at 25° C. for 1 hour during the experiment, the enzyme activity was confirmed using in vitro ADP-Glo™ kinase assay (Promega). Luminescence was measured by reacting the enzyme activity reaction solution, the ADP-Glo reaction solution, and the enzyme activity detection solution at a ratio of 2:2:1. The degree of inhibition of enzyme activity according to the treatment concentration of each compound was calculated based on the […] of the enzyme activity of a solvent control group in which a compound was not treated, and in this case, the concentration of each compound which suppresses the […] enzyme activity by 50% was determined as an IC50 (nM) value. The IC50 (nM) of each compound was determined by 3 datasets and obtained using Prism (version 7.01, GraphPad) software.
In the enzyme assay column, RET (WT) is a non-mutated form, RET (V804M) is a mutated form in which the V amino acid at position 804 of the RET is substituted with M, and CCDC6-RET is a form in which the RET (WT) gene and CCDC6 gene are fused.

Compound | GI50 [1] [nM] | GI50 [2] [nM] | GI50 [3] [nM] | GI50 [4] [nM] | GI50 [5] [nM] | IC50 [6] [nM]
COc1ccc(CN2C3CC2CN(c2ccc(-c4nc5c(c(Nc6cc(C)[nH]n6)n4)CCC5)cn2)C3)cn1 [Example 7, 2-(6-(6-((6-methoxypyridin-3-yl)methyl)-3,6-diazabicyclo [3.1.1]heptan-3-yl)pyridin-3-yl)-N-(5-methyl-1H-pyrazol-3-yl)-6,7-dihydro-5H-cyclopenta[d]py-rimidin-4-amine] | 6070 | 15 | 7 | 45 | 41 | 10
COc1ccc(CN2C3CC2CN(c2ccc(-c4nc(Nc5cc(C)[nH]n5)c5sccc5n4)cn2)C3)cn1 [Example 2, 2-(6-(6-((6-methoxypyridin-3-yl)methyl)-3,6-diazabicyclo [3.1.1]heptan-3-yl)pyridin-3-yl)-N-(5-methyl-1H-pyrazol-3-yl)thieno[3,2-d]pyrimidin-4-amine] | 4380 | 11 | 14 | 49 | 48 | 12
COc1ccc(CN2C3CC2CN(c2ccc(-c4nc(Nc5cc(C(F)(F)F)[nH]n5)c5occc5n4)cn2)C3)cn1 [Example 4, 2-(6-(6-((6-methoxypyridin-3-yl)methyl)-3,6-diazabicyclo [3.1.1]heptan-3-yl)pyridin-3-yl)-N-(5-(trifluoromethyl)-1H-pyrazol-3-yl)furo[3,2-d]pyrimidin-4-amine] | > 15000 | – | > 15000 | – | > 15000 | > 15000
